Experimental findings from BindingDB's records for patent US12178809 (Boehringer Ingelheim International, 2024) are described below.

The target of experiment [1] is T1, Diamine oxidase [copper-containing] (Homo sapiens, UniProt P19801).
T1 sequence (P19801 whole entry): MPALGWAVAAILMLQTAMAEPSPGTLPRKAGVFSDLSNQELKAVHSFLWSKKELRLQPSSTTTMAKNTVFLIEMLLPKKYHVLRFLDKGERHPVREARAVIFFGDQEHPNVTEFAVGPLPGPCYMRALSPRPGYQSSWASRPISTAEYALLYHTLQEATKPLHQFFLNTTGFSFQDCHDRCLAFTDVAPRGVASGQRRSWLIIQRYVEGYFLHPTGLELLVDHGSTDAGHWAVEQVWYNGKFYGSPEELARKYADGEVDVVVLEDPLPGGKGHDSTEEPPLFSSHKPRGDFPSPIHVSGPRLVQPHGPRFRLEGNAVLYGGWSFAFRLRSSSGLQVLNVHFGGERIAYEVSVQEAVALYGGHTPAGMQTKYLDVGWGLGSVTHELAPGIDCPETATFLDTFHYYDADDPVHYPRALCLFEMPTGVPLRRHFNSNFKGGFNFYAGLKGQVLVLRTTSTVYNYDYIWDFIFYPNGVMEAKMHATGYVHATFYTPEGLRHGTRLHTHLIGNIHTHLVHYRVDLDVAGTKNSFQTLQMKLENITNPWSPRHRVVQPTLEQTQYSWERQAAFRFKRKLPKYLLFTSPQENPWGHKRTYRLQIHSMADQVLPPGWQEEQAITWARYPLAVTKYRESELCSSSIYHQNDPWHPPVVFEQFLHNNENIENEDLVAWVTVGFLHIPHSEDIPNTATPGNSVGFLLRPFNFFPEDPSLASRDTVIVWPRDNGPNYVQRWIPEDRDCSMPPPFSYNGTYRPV
In words: AOC1 Biochemical Assay. The procedure: An aliquot of 3 μL of the compound dilution is added to a 384 well plate (Optiplate, PS, flat bottom F, black, PERKIN ELMER, #6007270) in a DMSO concentration of 6.6%.An AOC1 enzyme aliquot (#8297-AO-010, R&D Systems) is thawed on ice, diluted in reaction buffer and added in a volume of 7 μL to the wells to give a final assay concentration of 1 ng/well. After incubation of inhibitor and enzyme for 30 minutes at 37° C., the enzymatic reaction is started with the addition of 10 μL of Amplex Red reaction mix (final assay concentration: 100 mM sodiumphosphate, 120 μM Amplex Red reagent (#A22177 Molecular Probes), 1.5 U/mL Horseradish Peroxidase (#P8375 Sigma-Aldrich), 200 μM putrescine (#P7505 Sigma-Alrdich), 0.05% Pluronic F-127 (#P3000MP Sigma-Aldrich), pH 7.4, 37° C.).After an incubation for 30 minutes at 37° C. the turnover of the substrate is determined directly (or after the addition of an excess of an amine-oxidase inhibitor) with a fluorescence reader (Ex 540 nm/Em 590 nm) like Envision 2104 Multilabel Reader (PERKIN ELMER).

Experiment [2] addresses T2, Amine oxidase [copper-containing] 3 (Homo sapiens, UniProt Q16853).
T2 sequence (Q16853 whole entry): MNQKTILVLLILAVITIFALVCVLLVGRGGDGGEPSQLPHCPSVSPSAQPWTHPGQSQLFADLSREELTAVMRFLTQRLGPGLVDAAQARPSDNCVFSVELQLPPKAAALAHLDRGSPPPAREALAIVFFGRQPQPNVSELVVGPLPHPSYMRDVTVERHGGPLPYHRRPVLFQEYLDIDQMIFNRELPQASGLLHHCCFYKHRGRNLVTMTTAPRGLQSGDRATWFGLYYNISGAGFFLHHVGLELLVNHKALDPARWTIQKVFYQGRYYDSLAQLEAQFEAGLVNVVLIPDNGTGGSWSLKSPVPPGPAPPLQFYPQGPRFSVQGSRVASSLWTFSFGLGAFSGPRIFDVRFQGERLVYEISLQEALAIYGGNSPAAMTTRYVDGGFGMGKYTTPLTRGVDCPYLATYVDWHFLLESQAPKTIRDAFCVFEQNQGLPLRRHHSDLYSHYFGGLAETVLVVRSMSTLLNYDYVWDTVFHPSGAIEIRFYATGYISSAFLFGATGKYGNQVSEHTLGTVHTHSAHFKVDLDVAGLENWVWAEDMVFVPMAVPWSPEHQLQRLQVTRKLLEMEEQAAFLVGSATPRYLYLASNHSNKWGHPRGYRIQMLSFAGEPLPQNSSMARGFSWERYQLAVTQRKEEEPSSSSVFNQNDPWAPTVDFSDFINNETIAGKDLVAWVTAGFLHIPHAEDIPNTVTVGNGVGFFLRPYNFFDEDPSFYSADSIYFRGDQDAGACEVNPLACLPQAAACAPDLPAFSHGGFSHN
The experiment is described as follows: AOC3 Biochemical Assay. As to the method:
Recombinant CHO cells, overexpressing the human (1500 cells/well), mouse (1000 cells/well) or rat (500 cells/well) AOC3 enzyme are diluted in reaction buffer and added in a volume of 15 μL to the wells. After incubation for 20 minutes at 37° C., 2 μL of MAO substrate (dissolved in DMSO at 16 mM, adjusted to assay concentration in reaction buffer to a final assay concentration of 20 μM) is added and further incubated for 60 minutes at 37° C. The turnover of the substrate is determined by the addition of 20 μL of the detection-mix which was generated by the addition of reconstitution buffer with esterase (PROMEGA, #V1402) to the luciferine detection reagent (PROMEGA, #V1402).

Experiment [3] concerns the target T3, Amine oxidase [copper-containing] 2 (Homo sapiens, UniProt O75106).
T3 sequence (O75106 whole entry): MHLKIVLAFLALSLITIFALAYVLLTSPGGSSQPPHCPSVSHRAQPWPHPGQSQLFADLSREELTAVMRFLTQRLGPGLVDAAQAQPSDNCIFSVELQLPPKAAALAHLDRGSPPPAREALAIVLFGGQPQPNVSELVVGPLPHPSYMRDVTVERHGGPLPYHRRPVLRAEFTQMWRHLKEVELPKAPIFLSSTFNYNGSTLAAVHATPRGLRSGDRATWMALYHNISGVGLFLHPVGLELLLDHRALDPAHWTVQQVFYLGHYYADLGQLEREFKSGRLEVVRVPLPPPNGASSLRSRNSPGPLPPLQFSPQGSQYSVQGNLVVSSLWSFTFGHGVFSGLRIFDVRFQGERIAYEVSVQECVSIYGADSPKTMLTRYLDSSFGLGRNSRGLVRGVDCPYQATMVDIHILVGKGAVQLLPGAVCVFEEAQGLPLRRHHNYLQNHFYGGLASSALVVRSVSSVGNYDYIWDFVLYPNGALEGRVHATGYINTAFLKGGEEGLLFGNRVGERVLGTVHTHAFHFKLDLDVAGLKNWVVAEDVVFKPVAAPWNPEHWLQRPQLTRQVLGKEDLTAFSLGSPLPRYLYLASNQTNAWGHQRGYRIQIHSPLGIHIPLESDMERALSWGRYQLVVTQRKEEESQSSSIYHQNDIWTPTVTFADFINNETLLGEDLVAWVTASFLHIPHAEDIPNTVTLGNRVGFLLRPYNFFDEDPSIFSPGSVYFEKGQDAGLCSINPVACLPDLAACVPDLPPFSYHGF
The experiment is described as follows: AOC2 Biochemical Assay. As to the method:
Cells are cultured for 3 days in EMEM culture medium containing 10% FCS (#04-00-1A, Biological Industries). After washing twice with ice cold PBS, cells are lysed by mechanic homogenation and cleared supernatants are shock frozen in liquid nitrogen and stored at −80° C.For the determination of AOC2 enzymatic activity cell lysates are thawed on ice and 1:1 diluted with reaction buffer. An Aliquot of 45 μL is added to the compound dilution and incubated for 30 min at 37° C.

Broadly, the IC50 is the concentration at which inhibition is half-maximal. A lower IC50 goes with greater potency. For the compound `CC(C)(O)NC(=O)[C@H]1CCN(S(=O)(=O)c2ccc(OC/C(=C/F)CN)nc2)C1` [US12178809, Example 05], the IC50 in experiment [1] was greater than 50 µM; in experiment [2], 0.073 µM; in experiment [3] it was 0.629 µM.
